Test results from patent publication US20240165112A1, “THERAPY FOR THE TREATMENT OF CANCER” (Bristol-Myers Squibb Company, priority 2022, published 2024).

How the values were obtained:
[1] = system: CXF2061 organoid, colon cancer; assay: 3D clonogenic assay in patient derived organoids; assay type: cell-based, human; settings: 8 to 13 days
Procedure: (§1) Five tumor cell lines (4T1.2, A549, EMT6, NCI-H460, and HT29) were treated with a range of paclitaxel or 5-FU concentrations in the presence of dimethlylsulfoxide (DMSO), 5 μM Compound 1, or 20 μM Compound 1. Cells were imaged 4 days after treatment and percent confluence was assessed by image quantification. EC50 values for cell confluence were used to assess chemotherapy potency. Eleven patient-derived tumor organoids (MAXFTN449, MAXFTN2990, PAXF1657, PAXF2131, CXF1256, CXF2129, CXF2061, LXFE2478, LXFE690, LXFA677, LXFA644) were seeded in a 3D matrix and treated with a range of paclitaxel, 5-FU, SN38, Gemcitabine, oxaliplatin, and carboplatin concentrations in the presence of DMSO, 5 μM Compound 1, or 20 μM Compound 1. After 8 to 13 days in culture, colonies were stained, imaged, and counted. A dose response curve was generated for chemotherapy alone or chemotherapy in combination with 5 or 20 μM Compound 1. Combination activity was defined as a percentage of the area under the chemotherapy dose response curve (cAUC) for Compound 1 combination groups compared to the cAUC of chemotherapy alone.
(§2) For combination experiments, working stock solutions of all compounds were prepared in DMSO at concentrations of 660-fold the highest test concentration used and stored at −20° C. Platin compounds were prepared freshly on each treatment day. On each day of an experiment, an aliquot of the working stock solutions was used and stored at room temperature prior to and during treatment. First, 1:2 dilutions of 660-fold concentrated working stocks were prepared in DMSO (in case of monotherapy controls), or equal amounts of the compound working stocks were mixed (in case of drug combinations). Then, different dilutions of these 330-fold concentrated solutions were prepared in DMSO to give an 8×2 matrix combination layout with conditions. The DMSO dilutions were further diluted […] into cell culture medium (IMDM, supplemented with 20% (v/v) fetal bovine serum, and 50 μg/mL gentamicin) in an intermediate dilution plate. Finally, 10 μL taken from the intermediate dilution plate were transferred to 140 μL of cells and medium per well of the final assay plate. Thus, the DMSO dilutions used for the mono- and the combination-treatment were diluted 1:660, and the DMSO concentration in the assay was […].
(§3) Tumors were passaged as subcutaneous xenografts in NMRI nu/nu mice. At a tumor volume of 400 to 1000 mm^3, tumor-bearing mice were euthanized, and tumors were collected under sterile conditions without delay. Tumors were mechanically disaggregated and subsequently incubated with an enzyme cocktail consisting of collagenase type IV (41 U/mL), DNase I (125 U/mL), hyaluronidase type III (100 U/mL), and dispase II (1 U/mL) in RPMI 1640 medium at 37° C. for 60 to 120 minutes. Cells were passed through sieves of 100 μm and 40 μm mesh size, and washed with RPMI 1640 medium. The percentage of viable cells was determined in a Neubauer-hemocytometer using trypan blue exclusion. Aliquots of the cells were frozen down and stored in liquid nitrogen vapor phase. On each day of an experiment, a frozen aliquot of tumor cells was thawed and used for preparation of assay plates.
(§4) The clonogenic assay was carried out in a 96 well plate format using ultra low attachment plates. For each test, plates were prepared as follows: each test well contained a layer of semi-solid medium with tumor cells (50 μL), and a second layer of medium supernatant with or without test compound (100 μL). The cell layer consisted of […] to 12.5×10^3 tumor cells per well, which were seeded in 50 μL/well cell culture medium (IMDM, supplemented with 20% (v/v) fetal bovine serum, 50 μg/mL gentamicin, and 0.4% (w/v) agar). After 24 hours, the soft-agar layer was covered with 90 μL of the same culture medium without agar, and 10 μL of control medium or test compound after serial dilution in DMSO for the duration of the experiment (continuous exposure, 100 μL drug overlay).

[2] = system: LXFA644 organoid, NSCLC (adenocarcinoma subtype); assay: 3D clonogenic assay in patient derived organoids; assay type: cell-based, human; settings: 8 to 13 days
Procedure: as §1, §2, §3, §4

[3] = system: PAXF2131 organoid, Pancreatic cancer; assay: 3D clonogenic assay in patient derived organoids; assay type: cell-based, human; settings: 8 to 13 days
Procedure: as §1, §2, §3, §4

[4] = system: LXFE690 organoid, NSCLC (squamous subtype); assay: 3D clonogenic assay in patient derived organoids; assay type: cell-based, human; settings: 8 to 13 days
Procedure: as §1, §2, §3, §4

[5] = system: LXFA677 organoid, NSCLC (adenocarcinoma subtype); assay: 3D clonogenic assay in patient derived organoids; assay type: cell-based, human; settings: 8 to 13 days
Procedure: as §1, §2, §3, §4

[6] = system: MAXFTN2990 organoid, breast cancer (triple negative); assay: 3D clonogenic assay in patient derived organoids; assay type: cell-based, human; settings: 8 to 13 days
Procedure: as §1, §2, §3, §4

[7] = system: CCL2 secretion by primary human macrophages; assay: CCL2 secretion in primary human macrophages (ELISA); assay type: cell-based; settings: normalized to DMSO
Procedure: FIG. 11 illustrates the effect of Compound 1 Treatment on CCL2 Secretion in Primary Human Macrophages. Primary human monocytes were differentiated into macrophages and treated with varying doses of DMSO or Compound 1. The CCL2 levels were measured in the cell supernatant by ELISA 24 hours after drug treatment. The CCL2 secretion levels were normalized to the equivalent DMSO concentration. Data are plotted as the mean and standard deviation of 3 donors and representative of 2 independent experiments. *P<0.05; ** P<0.01, ***P<0.001; ****P<0.0001 by student's t-test. Abbreviations: CCL2, C—C motif chemokine ligand 2; DMSO, dimethyl sulfoxide; ELISA, enzyme-linked immunosorbent assay.
Peripheral blood mononuclear cells (PBMCs) were isolated from human blood using aseptic conditions. CD14+ monocytes were enriched from PBMC using Miltenyi Biotech kit (using CD14 microbeads). Fresh CD14+ monocytes were differentiated to macrophages using complete RPMI1640 medium with M-CSF recombinant human protein at the final concentration of 50 ng/mL. At Day 3-4, media containing M-CSF was added on monocytes/macrophages and incubated for 6-7 days in 5% CO2 incubator at 37° C. 10 mL 10 mM EDTA or Detachin was added to the culture dish containing macrophages, and let sit for 20-30 minutes, or until cells dissociate from the dish at room temperature. […]

With `C[C@@H]1CC[C@@H](Nc2nc(NC(C)(C)C)ncc2C(N)=O)C[C@H]1O` [Compound 1, 2-(tert-butylamino)-4-((1R,3R,4R)-3-hydroxy-4-methylcyclohexylamino)-pyrimidine-5-carboxamide] the “% Reduction in Colony Formation with Compound 1 compared with DMSO, Mean” value (from here on “% Reduction in Colony Formation”) ([1]; Compound 1, 5 μM) was 8%, the “% Reduction in Colony Formation” value ([1]; Compound 1, 20 μM) was 9% and the “% Reduction in Colony Formation” value ([2]; Compound 1, 5 μM) was 12%. For the same molecule, the “% Reduction in Colony Formation” value ([2]; Compound 1, 20 μM) was 24%, the “% Reduction in Colony Formation” value ([3]; Compound 1, 5 μM) was 62% and the “% Reduction in Colony Formation” value ([3]; Compound 1, 20 μM) was 68%. The “% Reduction in Colony Formation” value ([4]; Compound 1, 5 μM) was 73%, the “% Reduction in Colony Formation” value ([4]; Compound 1, 20 μM) was 79% and the “% Reduction in Colony Formation” value ([5]; Compound 1, 5 μM) was 27%. For the same molecule, the “% Reduction in Colony Formation” value ([5]; Compound 1, 20 μM) was 32%, the “% Reduction in Colony Formation” value ([6]; Compound 1, 5 μM) was −8% and the “% Reduction in Colony Formation” value ([6]; Compound 1, 20 μM) was 34%. The “reduction in CCL2” value ([7]; 7.4 μM Compound 1, supernatant) was 36% and the “reduction in CCL2” value ([7]; 20 μM Compound 1, supernatant) was 43%.
